The values below come from US7728000B2, “Substituted quinolines for the treatment of cancer” (Crystax Pharmaceuticals, priority 2003, dated 2010).

Data set [1] deals with Jurkat clon E6-1. Description: In vitro cytotoxicity, colorimetric MTT assay on Jurkat clon E6-1. In kind it is cell-based. The note with it: human leukemia cell line, concentrations up to 100 mikroM, incubation until 72 h, read-out: IC50 (_M) Jurkat clon E6-1. As for the experimental part:
(§1) The in vitro cytotoxicity of the compounds of the present invention was evaluated by colorimetric assays with tetrazol salts (MTT) on Jurkat clon E6-1 and on GLC-4, human leukemia and carcinoma cell lines, respectively. This assay is based on the capacity of live cells to incorporate and reduce the MTT, […], only active in live cells. The intensity of observed colour is directly correlated with the quantity of live cells in the sample as it is described by Mosmann et al., J. Immunol. Methods 1983, vol. 65, p. 55. In all cases the concentrations used were up to 100 mikroM and times of incubation until 72 h.
On the technique in general: Tetrazolium dyes change colour on reduction, which living cells bring about.

Data set [2] concerns GLC-4. Description: In vitro cytotoxicity, colorimetric MTT assay on GLC-4. The format is cell-based. The settings on record: GLC4, human carcinoma cell line, concentrations up to 100 mikroM, incubation until 72 h, read-out: IC50 (_M)GLC-4. As to the method: as §1

Structures are written as SMILES.

A word on the melting point: it is the temperature of the solid-liquid transition. For orientation: IC50 means the concentration needed to halve the response being measured. `CN(CCCNC(=O)c1c2ccccc2nc2ccccc12)CCCNC(=O)c1c2ccccc2nc2c1[nH]c1ccccc12` [Ia, N-[3-[[3-[(9-acridinecarbonyl)amino]propyl]methylamino]propyl]-10H-indolo[3,2-b]quinoline-11-carboxamide] gave a melting point of 108 to 110 °C. In data set [1], the IC50 was 1420 nM. For the same compound, in data set [2], the IC50 stood at 1630 nM.
`CN(C)CCNc1c2nc3ccccc3c-2n(C)c2ccccc12` [Ip, N,N-dimethyl-N′-(5-methyl-5H-indolo[3,2-b]quinolin-11-yl)-ethane-1,2-diamine]: the IC50 came to 260 nM in data set [1] and 670 nM in data set [2].
For `CN(C)CCNC(=O)c1c2ccccc2nc2c1[nH]c1ccccc12` [Iu, 10H-indolo[3,2-b]quinoline-11-carboxylic acid (2-dimethylamino-ethyl)amide], the half-inhibitory concentration (IC50) in data set [1] is 18700 nM; in data set [2] it was 15700 nM.
In turn, `CC(CNC(=O)c1c2ccccc2nc2c1[nH]c1ccccc12)N(C)C` (stereo not shown) [Iv, 10H-Indolo[3,2-b]quinoline-11-carboxylic acid (2-dimethylamino-propyl)amide] displayed a melting point of 188 to 189 °C. Also, the IC50 in data set [2] was 16700 nM.
On to `CC(CN(C)C)Nc1c2nc3ccccc3c-2n(C)c2ccccc12` (stereo not shown) [Iw, N,N-dimethyl-N′-(5-methyl-5H-indolo[3,2-b]quinolin-11-yl)-propane-1,2-diamine], for which the IC50 in data set [2] is 1080 nM.
